This passage reports TGI and GI50 results from PubChem BioAssay (NCI).

Test systems include SF-295 CNS; HCT-116 colon; BT-549 breast; SW-620 colon; SF-268 CNS; CAKI-1 renal; EKVX NSCLC; MDA-N; PC-3 prostate; KM12 colon; A549 NSCLC; HCC-2998 colon; A498 renal; SK-MEL-5 melanoma; SNB-75 CNS; RXF 393 renal.
What all share (assay): NCI tumour cell line growth inhibition, 48 h

“And” between values parts separate entries of the source, which are not always exact repeats. Equal values may be shown once.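 Grown in 96-well plates, cells were treated for 48 hours with each compound at five concentrations. Insufficient inhibition: endpoint recorded as highest concentration tested. Abbreviation: GI50, concentration required for 50% inhibition of growth. Definition used: TGI = concentration required for complete inhibition of growth.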 A value given as a limit tells only on which side of the number the result lay.

Regarding `N#CSc1nc[nH]c1C(N)=O`, the TGI was > 100 µM in the test with SF-295 CNS; > 100 µM in the test on HCT-116 colon; > 100 µM with BT-549 breast; > 100 µM with SW-620 colon; > 100 µM in the test on SF-268 CNS; > 81.6 µM with CAKI-1 renal. Also, the TGI in the test on EKVX NSCLC, in the test with MDA-N, with PC-3 prostate, in the test with KM12 colon, in the test with A549 NSCLC and with HCC-2998 colon was > 100 µM in each case. In addition, the TGI in the test on A498 renal, in the test with SK-MEL-5 melanoma, in the test with SNB-75 CNS and in the test on RXF 393 renal was > 100 µM each time.

For `COc1ccc(CCNC2=CC(=O)c3ncccc3C2=O)cc1OC`, the TGI in the test with SF-295 CNS was found to be 2.21 µM; with HCT-116 colon it was 10.2 µM; in the test on BT-549 breast, 2.82 µM; with SW-620 colon it was 5.54 µM; in the test with SF-268 CNS, 34.9 µM; in the test on CAKI-1 renal, 12.2 µM. Also, the TGI is 29.6 µM in the test with EKVX NSCLC; 2.45 µM with MDA-N; 23.4 µM in the test on PC-3 prostate; > 75.2 µM with KM12 colon; 2.51 µM with A549 NSCLC; 4.68 µM with HCC-2998 colon. The TGI with A498 renal came out at 3.39 µM; in the test on SK-MEL-5 melanoma, 0.793 µM; with SNB-75 CNS, 2.13 µM; in the test on RXF 393 renal it was 15.2 µM.

`O=C(NCCCNC(=O)c1ccc2c(O)c(O)ccc2c1)c1ccc2c(O)c(O)ccc2c1`: the TGI in the test with SF-295 CNS is 38.2 µM; in the test on HCT-116 colon it was > 94.4 µM; in the test on BT-549 breast it was 35.2 µM; in the test on SW-620 colon, > 62.2 µM; in the test on SF-268 CNS, 58.1 µM; in the test with CAKI-1 renal, > 100 µM. Moreover, the TGI in the test on EKVX NSCLC is > 79.9 µM; with MDA-N it was 41.4 µM; in the test with PC-3 prostate, > 100 µM; in the test on KM12 colon, 39.7 µM; in the test on A549 NSCLC, > 100 µM; in the test with HCC-2998 colon, > 100 µM. Also, the TGI is 98 µM in the test with A498 renal, 46.9 µM in the test on SK-MEL-5 melanoma, 42.5 µM in the test on SNB-75 CNS and > 70 µM in the test with RXF 393 renal.

Regarding `C[C@]12CCC(=O)C=C1CC[C@@H]1C2CC[C@]2(C)c3nn(-c4ccc(F)cc4)nc3CC12` (some centres undefined), the TGI in the test with SF-295 CNS, in the test on HCT-116 colon, in the test with BT-549 breast, in the test on SW-620 colon, in the test on SF-268 CNS and with CAKI-1 renal was > 100 µM throughout. The TGI in the test with EKVX NSCLC, in the test with MDA-N, in the test with PC-3 prostate, in the test on KM12 colon, in the test with A549 NSCLC and in the test on HCC-2998 colon was > 100 µM throughout. Also, the TGI with A498 renal, with SK-MEL-5 melanoma, in the test on SNB-75 CNS and with RXF 393 renal was > 100 µM in each case.

Consider `N#CC(NNC(=O)Cc1ccccc1)c1ccccc1O` (centres undefined), for which the TGI was > 100 µM in the test on SF-295 CNS; > 100 µM in the test on HCT-116 colon; > 100 µM in the test with BT-549 breast; > 100 µM in the test with SW-620 colon; 98.7 µM in the test on SF-268 CNS; > 89.9 µM with CAKI-1 renal. The TGI with EKVX NSCLC is > 100 µM; with MDA-N, > 100 µM; in the test on PC-3 prostate, > 100 µM; with KM12 colon, > 100 µM; in the test with A549 NSCLC, > 90.4 µM; in the test on HCC-2998 colon, 56.1 µM. The TGI is > 80.3 µM with A498 renal, > 72.2 µM with SK-MEL-5 melanoma, 85.6 µM with SNB-75 CNS and > 100 µM in the test with RXF 393 renal.

On to `NC(CCC(=O)NC(CSC(=O)N(O)c1ccc(Br)cc1)C(=O)NCC(=O)O)C(=O)O` (centres undefined), for which the TGI in the test on SF-295 CNS was > 100 µM; with HCT-116 colon, > 100 µM; in the test with BT-549 breast it was > 50 µM; in the test on SW-620 colon, > 100 µM; with SF-268 CNS, > 100 µM; in the test on CAKI-1 renal, > 100 µM. Besides, the TGI was > 100 µM in the test on EKVX NSCLC; > 50 µM in the test on MDA-N; > 50 µM with PC-3 prostate; > 100 µM with KM12 colon; > 100 µM with A549 NSCLC; > 100 µM in the test on HCC-2998 colon. The TGI in the test on A498 renal, in the test with SK-MEL-5 melanoma, in the test with SNB-75 CNS and in the test with RXF 393 renal was > 100 µM in each case. The GI50 with KM12 colon is > 100 µM and 45 µM; with SNB-75 CNS, 62.3 µM and 7.52 µM.

As to `O=C(O)c1nc(-c2ccccn2)c(-c2ccccn2)nc1C(=O)O`, the TGI with SF-295 CNS turned out to be 21.8 µM; in the test with HCT-116 colon, 5.6 µM; with BT-549 breast, 37.6 µM; in the test with SW-620 colon, 18.8 µM; in the test on SF-268 CNS, 24.1 µM; in the test with CAKI-1 renal, 8.5 µM. For the same molecule, the TGI worked out at 13.6 µM in the test on EKVX NSCLC; 29.2 µM with MDA-N; 20.9 µM in the test with PC-3 prostate; 17.9 µM in the test on KM12 colon; 11.9 µM with A549 NSCLC; 3.45 µM in the test with HCC-2998 colon. The TGI in the test with A498 renal turned out to be 4.12 µM; with SK-MEL-5 melanoma it was 8.53 µM; in the test on SNB-75 CNS, 11.6 µM; in the test on RXF 393 renal, 9.71 µM.
